Source: ChEMBL document CHEMBL1201862, “PubChem BioAssay data set” (2004)
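The compound was tested at five concentrations on cells cultured in 96-well plates, with a 48-hour exposure period. Here, GI50 denotes the concentration required for 50% inhibition of growth.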 Active and inactive are the calls of the source. No stated cut-off is given here; in the data, active = GI50 up to about 1.1 µM and inactive = higher.

Assays:
Assay in all cases: inhibition of tumour cell growth, NCI panel, 48 h
A549 = test system: A549
EKVX = test system: EKVX
RXF 393 = test system: RXF 393
LOX IMVI = test system: LOX IMVI
SNB-75 = test system: SNB-75
M14 = test system: M14
MOLT-4 = test system: MOLT-4
UACC-257 = test system: UACC-257
OVCAR-8 = test system: OVCAR-8
HCT-15 = test system: HCT-15
DMS-114 = test system: DMS-114
SK-MEL-28 = test system: SK-MEL-28
SW-620 = test system: SW-620
ACHN = test system: ACHN
NCI-H522 = test system: NCI-H522
HL-60 = test system: HL-60
MCF7 = test system: MCF7
T47D = test system: T47D
Hs-578T = test system: Hs-578T
MDA-N = test system: MDA-N

Compound | GI50 (A549) | GI50 (EKVX) | GI50 (RXF 393) | GI50 (LOX IMVI) | GI50 (SNB-75) | GI50 (M14) | GI50 (MOLT-4) | GI50 (UACC-257) | GI50 (OVCAR-8) | GI50 (HCT-15) [µM] | GI50 (DMS-114) | GI50 (SK-MEL-28) | GI50 (SW-620) | GI50 (ACHN) | GI50 (NCI-H522) | GI50 (HL-60) | GI50 (MCF7) | GI50 (T47D) | GI50 (Hs-578T) | GI50 (MDA-N)
O=C1/C(=C/c2ccccc2)CCCC/C1=C\c1ccccc1 | 41.7 µM (inactive) | > 100 µM (inactive) | 27.2 µM (inactive) | 53.7 µM (inactive) | 66.7 µM (inactive) | > 100 µM (inactive) | 27.7 µM (inactive) | 41.2 µM (inactive) | 75.3 µM (inactive) | 32.9 | 42.5 µM (inactive) | > 100 µM (inactive) | 58.5 µM (inactive) | 78.7 µM (inactive) | – | – | – | – | – | –
c1cc2c(cc1C1OCC3C(c4ccc5c(c4)OCO5)OCC13)OCO2 (stereo unspecified) | 54 µM (inactive) | 62.4 µM (inactive) | 57.9 µM (inactive) | 73.1 µM (inactive) | 50.8 µM (inactive) | 66.8 µM (inactive) | 34.1 µM (inactive) | 53.8 µM (inactive) | 85.3 µM (inactive) | 50.6 | 40.4 µM (inactive) | 64.7 µM (inactive) | > 100 µM (inactive) | 80.7 µM (inactive) | 65.8 µM (inactive) | – | – | – | – | –
CCOC(=O)C(=CNC(Cc1c[nH]c2ccccc12)C(=O)OC)C(=O)OCC (stereo unspecified) | – | > 100 µM (inactive) | – | > 100 µM (inactive) | > 100 µM (inactive) | > 100 µM (inactive) | > 100 µM (inactive) | – | > 100 µM (inactive) | > 100 | > 100 µM (inactive) | > 100 µM (inactive) | > 100 µM (inactive) | > 100 µM (inactive) | > 100 µM (inactive) | > 100 µM (inactive) | – | – | – | –
O=c1c2ccccc2n2nnc3ccc(NCCCNCCNCCCNc4ccc5nnn6c7ccccc7c(=O)c4c56)c1c32 | 0.612 µM (active) | 7.03 µM (inactive) | 1.37 µM (inactive) | 0.566 µM (active) | 7.89 µM (inactive) | > 12.6 µM (inactive) | 0.0582 µM (active) | 8.73 µM (inactive) | 1.28 µM (inactive) | 3.33 | – | > 18.5 µM (inactive) | 0.251 µM (active) | 0.986 µM (active) | 0.234 µM (active) | 1.1 µM (active) | 0.447 µM (active) | > 37.4 µM (inactive) | 5.52 µM (inactive) | 1.38 µM (inactive)
C#CCOc1c(C(=O)OCC)c(=O)n(C)c2ccccc12 | – | > 100 µM (inactive) | – | > 100 µM (inactive) | 54.5 µM (inactive) | > 100 µM (inactive) | > 100 µM (inactive) | – | > 100 µM (inactive) | > 100 | > 100 µM (inactive) | > 100 µM (inactive) | > 100 µM (inactive) | > 100 µM (inactive) | > 100 µM (inactive) | > 100 µM (inactive) | – | – | – | –
COC(=O)CC(c1ccccc1)C1(c2ccccc2)SCCS1 (stereo unspecified) | 272 µM (inactive) | > 290 µM (inactive) | > 290 µM (inactive) | 130 µM (inactive) | – | – | 58.1 µM (inactive) | > 290 µM (inactive) | 169 µM (inactive) | 94.8 | 121 µM (inactive) | > 290 µM (inactive) | 232 µM (inactive) | > 290 µM (inactive) | 106 µM (inactive) | 141 µM (inactive) | – | – | – | –
Cc1ccccc1NC(=O)C(=O)CC(=O)c1sc(-n2nc(-c3ccccc3)cc2-c2ccccc2)nc1C | > 100 µM (inactive) | > 100 µM (inactive) | > 100 µM (inactive) | > 100 µM (inactive) | > 100 µM (inactive) | > 100 µM (inactive) | > 100 µM (inactive) | > 100 µM (inactive) | > 100 µM (inactive) | > 100 | > 100 µM (inactive) | – | > 100 µM (inactive) | > 100 µM (inactive) | > 100 µM (inactive) | > 100 µM (inactive) | – | – | – | –
COC(=O)c1nn(C(=N)c2ccc(Cl)cc2)c2c1CCC2 | > 100 µM (inactive) | – | > 100 µM (inactive) | > 100 µM (inactive) | > 100 µM (inactive) | > 100 µM (inactive) | > 100 µM (inactive) | > 100 µM (inactive) | > 100 µM (inactive) | > 100 | > 100 µM (inactive) | > 100 µM (inactive) | > 100 µM (inactive) | > 100 µM (inactive) | > 100 µM (inactive) | > 100 µM (inactive) | – | – | – | –
Cn1nc(N)nc1N=S(C)(C)=N | > 100 µM (inactive) | > 100 µM (inactive) | > 100 µM (inactive) | – | > 100 µM (inactive) | > 100 µM (inactive) | > 100 µM (inactive) | > 100 µM (inactive) | > 100 µM (inactive) | > 100 | > 100 µM (inactive) | > 100 µM (inactive) | > 100 µM (inactive) | > 100 µM (inactive) | 83.9 µM (inactive) | > 100 µM (inactive) | – | – | – | –
O=C1CCCCCCCCCCC(=O)C2CCOCCOCCOCCC1Cc1cccc(n1)C2 | > 100 µM (inactive) | > 100 µM (inactive) | 32 µM (inactive) | > 100 µM (inactive) | 49.3 µM (inactive) | 67.6 µM (inactive) | 31.6 µM (inactive) | > 100 µM (inactive) | 59.3 µM (inactive) | 83.2 | 77.6 µM (inactive) | > 100 µM (inactive) | > 100 µM (inactive) | 69.8 µM (inactive) | 43.9 µM (inactive) | – | – | – | – | –
CCCOc1nc(N)c2cnn(C3CCCCO3)c2n1 (stereo unspecified) | > 100 µM (inactive) | > 100 µM (inactive) | > 100 µM (inactive) | – | 56.8 µM (inactive) | > 100 µM (inactive) | > 100 µM (inactive) | > 100 µM (inactive) | > 100 µM (inactive) | > 100 | > 100 µM (inactive) | > 100 µM (inactive) | > 100 µM (inactive) | > 100 µM (inactive) | > 100 µM (inactive) | > 100 µM (inactive) | – | – | – | –
CCCCCCCCCCCCCCCC(=O)OC(COC(C)=O)CO[PH](=O)O (stereo unspecified) | 19.5 µM (inactive) | 49.3 µM (inactive) | 36 µM (inactive) | 23.2 µM (inactive) | 22.4 µM (inactive) | 14.7 µM (inactive) | 31.3 µM (inactive) | 34 µM (inactive) | 18.1 µM (inactive) | 24 | – | 35.2 µM (inactive) | 33.2 µM (inactive) | 27.7 µM (inactive) | 15.1 µM (inactive) | 31.9 µM (inactive) | > 100 µM (inactive) | 53.2 µM (inactive) | 11.8 µM (inactive) | 31.3 µM (inactive)
S=C(S)NCC1CCC(CNC(=S)S)CC1 (stereo unspecified) | > 100 µM (inactive) | 62.1 µM (inactive) | 20 µM (inactive) | 18.8 µM (inactive) | 34.9 µM (inactive) | 82.8 µM (inactive) | 29.2 µM (inactive) | 26.3 µM (inactive) | 20.9 µM (inactive) | 23.6 | – | 56.2 µM (inactive) | 47.5 µM (inactive) | 20.7 µM (inactive) | 12.7 µM (inactive) | 48.9 µM (inactive) | 17.9 µM (inactive) | 16.3 µM (inactive) | > 100 µM (inactive) | 26.7 µM (inactive)
CC(C)(C)[Si](C)(C)O/N=C\c1cccc(O[Si](C)(C)C(C)(C)C)c1 | 17.8 µM (inactive) | 18.5 µM (inactive) | 19.6 µM (inactive) | 19.2 µM (inactive) | 16.7 µM (inactive) | 16 µM (inactive) | 18.1 µM (inactive) | 21.9 µM (inactive) | 20 µM (inactive) | 19.2 | 18.8 µM (inactive) | – | 18.5 µM (inactive) | 17.9 µM (inactive) | – | 18.3 µM (inactive) | – | – | – | –
CN(CC1(CO)CCC1)c1cc(Cl)nc(N)n1 | > 100 µM (inactive) | 43.3 µM (inactive) | > 100 µM (inactive) | > 100 µM (inactive) | 78.5 µM (inactive) | > 100 µM (inactive) | > 100 µM (inactive) | > 100 µM (inactive) | > 100 µM (inactive) | > 100 | – | > 100 µM (inactive) | > 100 µM (inactive) | > 100 µM (inactive) | > 100 µM (inactive) | > 100 µM (inactive) | > 100 µM (inactive) | > 100 µM (inactive) | > 100 µM (inactive) | > 100 µM (inactive)
COC(=O)C(CC(=O)c1c[nH]c2ccccc12)c1c[nH]c2ccccc12 (stereo unspecified) | 21.2 µM (inactive) | 23.4 µM (inactive) | 14 µM (inactive) | – | 21.2 µM (inactive) | 18.2 µM (inactive) | 16.2 µM (inactive) | 15.4 µM (inactive) | 22.6 µM (inactive) | 16.4 | 15.8 µM (inactive) | 19.5 µM (inactive) | 22.8 µM (inactive) | 16.3 µM (inactive) | – | 20.1 µM (inactive) | – | – | – | –
COc1ccc(/N=C2\C(=S)N(c3ccc(OC)cc3)/C(=N/S(=O)(=O)c3ccccc3)N2c2ccccc2)cc1 | 34.9 µM (inactive) | 16.4 µM (inactive) | 5.22 µM (inactive) | 3.59 µM (inactive) | 17.3 µM (inactive) | 4.9 µM (inactive) | 0.953 µM (active) | 13 µM (inactive) | 3.95 µM (inactive) | 5.75 | – | 13.8 µM (inactive) | 2.62 µM (inactive) | 8.85 µM (inactive) | 1.64 µM (inactive) | 0.986 µM (active) | 17 µM (inactive) | 1.09 µM (active) | 17.9 µM (inactive) | 3.93 µM (inactive)
CN/C(N)=N/N=C1/C(=O)Nc2ccccc21 | > 100 µM (inactive) | > 100 µM (inactive) | > 100 µM (inactive) | > 100 µM (inactive) | > 100 µM (inactive) | > 100 µM (inactive) | > 100 µM (inactive) | > 100 µM (inactive) | > 100 µM (inactive) | > 100 | – | > 100 µM (inactive) | > 100 µM (inactive) | > 100 µM (inactive) | > 100 µM (inactive) | > 100 µM (inactive) | > 100 µM (inactive) | > 100 µM (inactive) | > 100 µM (inactive) | > 100 µM (inactive)
